The results in this text go back to patent US8883789B2, “Piperazine derivatives and their use as positive allosteric modulators of mGluR5 receptors” (Boehringer Ingelheim International GmbH, priority 2011, dated 2014).

T1 sequence (P41594 21-1212): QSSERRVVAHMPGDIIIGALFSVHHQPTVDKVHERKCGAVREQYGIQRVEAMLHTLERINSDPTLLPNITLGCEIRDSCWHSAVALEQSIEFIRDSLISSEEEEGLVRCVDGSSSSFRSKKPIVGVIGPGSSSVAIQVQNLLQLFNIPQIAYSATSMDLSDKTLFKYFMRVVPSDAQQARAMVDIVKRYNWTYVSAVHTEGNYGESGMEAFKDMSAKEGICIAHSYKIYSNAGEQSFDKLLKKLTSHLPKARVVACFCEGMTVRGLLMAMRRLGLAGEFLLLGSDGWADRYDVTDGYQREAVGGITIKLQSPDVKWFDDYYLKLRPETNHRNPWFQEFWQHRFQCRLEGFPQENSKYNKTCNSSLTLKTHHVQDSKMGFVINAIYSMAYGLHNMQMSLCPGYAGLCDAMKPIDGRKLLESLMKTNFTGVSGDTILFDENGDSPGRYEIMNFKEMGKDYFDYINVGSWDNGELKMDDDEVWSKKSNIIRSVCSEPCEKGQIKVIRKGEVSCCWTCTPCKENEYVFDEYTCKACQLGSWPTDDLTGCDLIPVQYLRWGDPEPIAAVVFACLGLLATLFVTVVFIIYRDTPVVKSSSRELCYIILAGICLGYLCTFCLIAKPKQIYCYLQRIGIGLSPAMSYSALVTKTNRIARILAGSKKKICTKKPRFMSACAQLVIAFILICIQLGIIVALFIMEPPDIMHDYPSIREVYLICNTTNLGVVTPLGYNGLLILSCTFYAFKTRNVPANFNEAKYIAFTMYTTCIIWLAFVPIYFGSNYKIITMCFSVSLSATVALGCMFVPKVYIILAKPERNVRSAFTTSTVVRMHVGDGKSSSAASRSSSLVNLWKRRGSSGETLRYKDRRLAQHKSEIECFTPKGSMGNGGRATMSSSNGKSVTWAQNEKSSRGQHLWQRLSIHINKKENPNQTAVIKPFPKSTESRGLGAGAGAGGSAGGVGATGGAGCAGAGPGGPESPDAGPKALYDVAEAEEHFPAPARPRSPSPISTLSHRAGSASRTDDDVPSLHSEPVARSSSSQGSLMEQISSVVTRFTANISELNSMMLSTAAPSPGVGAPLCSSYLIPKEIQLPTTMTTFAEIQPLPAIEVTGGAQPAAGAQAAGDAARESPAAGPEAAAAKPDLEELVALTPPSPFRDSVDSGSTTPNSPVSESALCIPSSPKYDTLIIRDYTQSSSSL

This assay concerns the target T1, human recombinant mGluR5 (Homo sapiens, UniProt P41594).
T1 construct: expressed in transfected cells; hygromycin and geneticin selection
In words: positive modulation of mGluR5, calcium based FLIPR assay. Conditions: HEK 293 cell line expressing human recombinant mGluR5; Ca2+ peak height after glutamate at approximately 5% basal stimulation; nonlinear regression. The gist of the method: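 HEK293 cells with tetracycline-free induction, Calcium-4 dye-loaded in Ringer pH 7.4. Compound added 5 min before glutamate at ~5% of maximal effect, 1% DMSO. EC50 from peak Ca2+ fluorescence, normalized to basal glutamate (100%) and 10 μM CDPPB (200%), via nonlinear regression.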
The EC50 is the midpoint of the concentration-response curve. Take `CC(C)COc1cccc(C(=O)N2CCN(C(=O)c3ncn(-c4cccc(Cl)c4)n3)C(C)C2)c1` (stereo not shown) [Example 282]: the EC50 was determined as 597 nM.
The value for `Cn1nc(C(=O)N2CCN(C(=O)c3ncn(-c4cccc(Cl)c4)n3)C(C)(C)C2)c2ccccc21` [Example 77] was 181 nM; that for `COc1cccc(C(=O)N2CCN(C(=O)c3ncn(-c4cccc(Cl)c4)n3)C[C@H]2C)n1` [Example 248, (R)-{4-[1-(3-Chloro-phenyl)-1H-[1,2,4]triazole-3-carbonyl]-2-methyl-piperazin-1-yl}-(6-methoxy-pyridin-2-yl)-methanone] was 169 nM.
The value for `CC1(C)CN(C(=O)c2cc(Cl)c3c(c2)OCCO3)CCN1C(=O)c1nnn(-c2cccc(F)c2)n1` [Example 170] was 37 nM; that for `COc1cccc(C(=O)N2CCN(C(=O)c3nnn(-c4cccc(F)c4)n3)C(C)(C)C2)n1` [Example 202] was 65 nM; that for `Cc1cc(C)cc(C(=O)N2CCN(C(=O)c3ncn(-c4ccccc4)n3)C(C)(C)C2)c1` [Example 113] was 76 nM.
The value for `CC1(C)CN(C(=O)c2cccc(-c3cnco3)c2)CCN1C(=O)c1ncn(-c2cccc(Cl)c2)n1` [Example 28] was 99 nM.
Turning to `CC1CN(C(=O)c2cc3c(Cl)cccc3s2)CCN1C(=O)c1ncn(-c2ccccc2)n1` (stereo not shown) [Example 293], the EC50 stood at 361 nM.
With `CC1CN(C(=O)c2ncn(-c3cccc(Cl)c3)n2)CCN1C(=O)c1cccc(-c2nccs2)c1` (stereo not shown) [Example 218] the figure was 422 nM.
With `CC1(C)CN(C(=O)c2ccc3ccccc3c2)CCN1C(=O)c1ncn(-c2cccc(Cl)c2)n1` [Example 24] the figure was 61 nM.
Take `CC(C)Oc1cccc(C(=O)N2CCN(C(=O)c3ncn(-c4ccccc4)n3)C(C)(C)C2)c1` [Example 126]: the 50% effective concentration (EC50) came to 91 nM.
Regarding `COc1nc(C(=O)N2CCN(C(=O)c3ncn(-c4cccc(Cl)c4)n3)C(C)(C)C2)cc2ccccc12` [Example 42], the EC50 turned out to be 88 nM.
`CC1(C)CN(C(=O)c2cccc(-c3nccs3)c2)CCN1C(=O)c1ncn(-c2cccc(Cl)c2)n1` [Example 26]: the EC50 is 72 nM.
With `COc1cc(OC)cc(C(=O)N2CCN(C(=O)c3ncn(-c4cccc(Cl)c4)n3)CC2C)c1` (stereo not shown) [Example 224] the figure was 369 nM; with `CC(C)c1cccc(C(=O)N2CCN(C(=O)c3ncn(-c4ccccc4)n3)C(C)(C)C2)c1` [Example 96, [4-(3-Isopropyl-benzoyl)-2,2-dimethyl-piperazin-1-yl]-(1-phenyl-1H-[1,2,4]triazol-3-yl)-methanone], 25 nM; with `Cc1cc2cc(C(=O)N3CCN(C(=O)c4ncn(-c5cccc(Cl)c5)n4)C(C)(C)C3)ccc2[nH]1` [Example 80], 139 nM.
With `CC1(C)CN(C(=O)c2cc3ccccn3c2)CCN1C(=O)c1ncn(-c2cccc(Cl)c2)n1` [Example 58] the figure was 104 nM; with `COc1cc(Cl)cc(C(=O)N2CCN(C(=O)c3nnn(-c4cccc(F)c4)n3)C(C)(C)C2)n1` [Example 169, [4-(4-Chloro-6-methoxy-pyridine-2-carbonyl)-2,2-dimethyl-piperazin-1-yl]-[2-(3-fluoro-phenyl)-2H-tetrazol-5-yl]-methanone], 27 nM.
In the case of `CC1(C)CN(C(=O)c2cc(C(F)(F)F)ccn2)CCN1C(=O)c1ncn(-c2cccc(Cl)c2)n1` [Example 89], the EC50 is 168 nM.
Take `Cc1c(C(=O)N2CCN(C(=O)c3ncn(-c4cccc(Cl)c4)n3)CC2C)oc2c(F)cccc12` (stereo not shown) [Example 232]: the EC50 is 1160 nM.
For `CC1(C)CN(C(=O)c2cccc(C3CC3)n2)CCN1C(=O)c1ncn(-c2ccccc2)n1` [Example 183], the EC50 came to 49 nM.
With `Cc1cccc(-n2cnc(C(=O)N3C[C@@H](C)N(C(=O)c4oc5ccc(Cl)cc5c4C)[C@@H](C)C3)n2)c1` [Example 264] the figure was 891 nM.
